From publication PMC12020424, “Identification and Validation of Cyclic Peptides with Mucin-Selective, Location-Specific Binding in the Gastrointestinal Tract” (ACS Nano, 2025) come the findings set out here.

Common to all, as to format: binding
Assay [1] deals with MUC2 (Homo sapiens, UniProt Q02817). As to the kind of experiment: Phage display (CX7C library) against MUC2, Sanger sequencing. The following applies: for % Prevalence: MUC2 phage screening, CX7C library, third round of panning, 16 sequenced candidates. The protocol: (§1) For each mucin of interest, 5 μg of mucin protein was diluted in 150 μL of Tris-buffered saline (TBS) and added to 2 wells of a microtiter plate. The plate was left overnight in a humidified, sealed container with agitation at 50 rpm. After the overnight mucin coating, the solution was poured out, and 300 μL of blocking buffer was added to the wells for 1 h. After the 1 h waiting period, the blocking buffer was poured out, and the wells were washed three times with 300 μL of Tris-buffered saline with TBST (TBS + 0.1% (v/v) Tween-20) to remove nonspecific binding on the mucin layer coating. Next, 5 μL of the C7C library diluted with 95 μL of TBST was added to each blocked well and placed on shaker for 45 min, before pouring out the nonbinding phage and washing the plate ten times with TBST. A 0.2 M glycine-HCl elution buffer (pH 2.2, 100 μL) was added to each well and placed on a shaker for 20 min to release the mucin-layer binding peptides on the plate as unamplified eluate, with the pH neutralized by 30 μL of neutralization buffer (1 M Tris-HCl, pH 9).
E. coli liquid cultures were prepared by adding E. coli cells to 20 mL of LB media and placing them in shaking conditions at 37 °C and 250 rpm for 2 h and 45 min. The unamplified eluate (1 μL of which was saved for titering) was added to the E. coli cultures under the same conditions for 4 h and 45 min for amplification. After amplification, the cultures were centrifuged for 10 min at 12,000 g RCF at 4 °C, and the supernatant was collected and spun again under the same conditions for 5 min. The top 16 mL of supernatant was collected and mixed with 4 mL of PEG/NaCl (20% (w/v) PEG-8000/2.5 M NaCl in water) to promote precipitation of the mucin-binding peptide-containing phage and left overnight.
Titering was performed to measure the amount of phages present in the solution. From the obtained unamplified eluate, 1 μL of unamplified eluate was added to 999 μL of LB solution to obtain a 10³ dilution. […]

Assay [2] has as its target T1, MUC5AC (Homo sapiens, UniProt P98088). As to the kind of experiment: Phage display (CX7C library) against MUC5AC, Sanger sequencing. To be noted: MUC5AC phage screening, third round of panning, 16 sequenced candidates. The protocol: as §1
E. coli liquid cultures were prepared by adding E. coli cells to 20 mL of LB media and placing them in shaking conditions at 37 °C and 250 rpm for 2 h and 45 min. The unamplified eluate (1 μL of which was saved for titering) was added to the E. coli cultures under the same conditions for 4 h and 45 min for amplification. […]

Assay [3] addresses T1, MUC5AC. As to the kind of experiment: Phage ELISA on MUC5AC. To be noted: phage clones displaying the peptide, 10^7 PFU/μL, MUC5AC-coated plate, anti-M13/HRP, TMB, 450 nm, blank subtracted, three wells; vs random library and insertless phage. The source says:
We next sought to validate the binding efficiency of these identified phage clones. We tested phage clones displaying peptides M2.1, M2.2, M2.3, and M2.4 for binding to MUC2, and phage clones displaying peptides M5.1, M5.2, M5.3, and M5.4 for binding to MUC5AC. We utilized a bacteriophage enzyme-linked immunosorbent assay to test the binding of the peptide hits to the specific target mucins, MUC2 and MUC5AC (Figure 2d). The spectrophotometer reported absorbance values at 450 nm. The intensity of the absorbance signal is proportional to the amount of peptide-mucin binding present in each sample. The negative controls (library samples and insertless samples) served as references for nonspecific binding.
First, mucin was coated onto the surface of a plastic plate overnight using the same process as that performed for the original phage display. The next morning, three wells of each phage clone were prepared, with each phage solution having a titer of 10^7 PFU/μL to ensure a fair comparison between the clones. […]
However, instead of eluting the bound phage, 100 μL of 1:2000 anti-M13/HRP mouse monoclonal antibody was added to each well, and the antibody was allowed to incubate with the wells for 30 min. […] The resulting solutions were analyzed by absorbance spectroscopy at a wavelength of 450 nm to determine the relative amount of phage present in each well.
A general note: An ELISA detects its analyte on a solid surface through an enzyme-linked reagent.

Bridge positions count the residues as written; N and C are the ends. Ends that are not written are not given here.

As for “CAKHRIMLC (disulfide 1-9 (inferred)) [Peptide M2.1, CX7C cyclic peptide hit for MUC2; AF647 conjugated at N-terminus in ex vivo tests]”, in assay [1], the “% Prevalence” value amounted to 25%. Besides, the “repeated peptide hits (number of phage candidates)” value in assay [1] (phage display against MUC2, Sanger sequencing) is given as 4 of 16.
For “CTDKASSSC (disulfide 1-9 (inferred)) [Peptide M2.2, CX7C cyclic peptide hit for MUC2]”, the “% Prevalence” value in assay [1] worked out at 6.25%.
For the sequence “CTDKASSSC (disulfide 1-9 (inferred)) [Peptide M5.1, CX7C cyclic peptide hit for MUC5AC]”, the “% Prevalence” value in assay [2] is 18.75%. For the same sequence, the “phage ELISA binding vs negative controls” value in assay [3] is “significantly greater binding to MUC5AC than the random library and insertless phage”.
